Where two headings read alike, the source gives them in different places.
Key:
Release kinetics assay = format: physicochemical; settings: pH 4.0, 37° C.
Description: The SO1861 conjugate of interest was dissolved in an acetate buffer (20 mM, pH 4.0 or pH 5.0), a phosphate buffer (20 mM) or in a PBS buffer (pH 7.4) with a final concentration of 10 μM at 20° C. or at 37° C. The release of SO1861 was followed overtime by monitoring the decrease of the UPLC-UV 4 peak area of the SO1861 conjugate of interest at different time points.

[1] = tested on: human red blood cells (RBC); experiment: Haemolysis assay; format: cell-based; settings: fresh human red blood cells
Description: Red blood cells (RBCs) were isolated from a buffy coat using a Ficoll gradient. The obtained RBC pellet (˜4-5 ml) was washed 2× with 50 ml DPBS (without Ca^2+/Mg^2+, PAN-Biotech GmbH). Cells were pelleted by centrifugation for 10 min, 800×g at RT. RBC were counted and resuspended at 500,000,000 c/ml in DPBS (without Ca^2+/Mg^2+), based on total cell count. SO1861-linker dilutions were prepared in DPBS (with Ca^2+/Mg^2+, PAN-Biotech GmbH), at 1.11× final strength. For positive lysis control a 0.02% Triton-X100 solution was prepared in DPBS^+/+. Of all compound solutions 135 μl was dispensed/well in a 96 well V-bottom plate. To this 15 μl RBC suspension was added and mixed shortly (10 sec-600 rpm). The plate was incubated 30 min at RT, with gentle agitation. Afterwards the plate was spun for 10 min at 800×g to pellet the RBC and 100-120 μl supernatant was transferred to a standard 96 wp. Subsequently, the OD at 405 nm was measured on a Thermo Scientific Multiskan FC plate reader (Thermo Scientific).

A431 cells [2] = experiment: Cell toxicity (MTS cell viability assay); format: cell-based, human; settings: saponin alone
Description: (§1) Cell viability was determined by an MTS-assay, performed according to the manufacturer's instruction (CellTiter 96® AQueous One Solution Cell Proliferation Assay, Promega). Briefly, the MTS solution was diluted 20× in DMEM without phenol red (PAN-Biotech GmbH) supplemented with 10% FBS (PAN-Biotech GmbH). The cells were washed once with 200 μL PBS per well, after which 100 μL diluted MTS solution was added per well. The plate was incubated for approximately 20-30 minutes at 37° C. Subsequently, the optical density at 492 nm was measured on a Thermo Scientific Multiskan FC plate reader (Thermo Scientific).

HeLa cells [3] = experiment: Cell toxicity (MTS cell viability assay); format: cell-based, human; settings: saponin alone
Description: as §1

A431 cells [4] = format: cell-based, human
Description: as §1

HeLa cells [5] = format: cell-based, human
Description: as §1

[6] = tested on: HSP27 mRNA expression in A431 cells; experiment: HSP27 gene silencing (qPCR) in A431 cells; format: cell-based; settings: Homo sapiens, A-431, saponin titrated +50 nM Trastuzumab-HSP27BNA
Description: RNA Isolation and Gene Expression Analysis
RNA from cells was isolated and analysed according to standard protocols (Biorad).

[7] = +5 pM EGFdianthin or 10 pM cetuximab-saporin or 50 pM Trastuzumab-saporin
[8] = read-out: IC50 nM (Activity; +5 pM EGFdianthin), saponin titrated +5 pM EGFdianthin

Q: What does the source list for CC(=O)OC1C(C)OC(OC2C(C)OC(OC(=O)[C@]34CCC(C)(C)CC3C3=CCC5[C@@]6(C)CC[C@H](OC7OC(C(=O)O)C(O)C(OC8OCC(O)C(O)C8O)C7OC7OC(CO)C(O)C(O)C7O)[C@@](C)(C=NNC(=O)CCCCCN7C(=O)CC(SCCO)C7=O)C6CC[C@@]5(C)[C@]3(C)C[C@H]4O)C(OC3OC(C)C(OC4OCC(O)C(OC5OC(CO)C(O)C(O)C5O)C4O)C(O)C3O)C2O)C(O)C1OC1OCC(O)C(O)C1O (stereo partly drawn) [SO1861-EMCH (blocked)]?
A: time to 50% release of SO1861 (Release kinetics assay): 12 h; IC50 ([1]; Erythrocyte): 6 µM

Q: What does the source list for CC(=O)O[C@H]1[C@H](O[C@@H]2OC[C@@H](O)[C@H](O)[C@H]2O)[C@@H](O)[C@H](O[C@@H]2[C@H](O)[C@@H](O[C@@H]3O[C@@H](C)[C@H](O[C@@H]4OC[C@@H](O)[C@H](O[C@@H]5O[C@H](CO)[C@@H](O)[C@H](O)[C@H]5O)[C@H]4O)[C@@H](O)[C@H]3O)[C@H](OC(=O)[C@]34CCC(C)(C)C[C@H]3C3=CC[C@@H]5[C@@]6(C)CC[C@H](O[C@@H]7O[C@H](C(=O)O)[C@@H](O)[C@H](O[C@@H]8OC[C@@H](O)[C@H](O)[C@H]8O)[C@H]7O[C@@H]7O[C@H](CO)[C@H](O)[C@H](O)[C@H]7O)[C@@](C)(C=O)[C@@H]6CC[C@@]5(C)[C@]3(C)C[C@H]4O)O[C@@H]2C)O[C@@H]1C [SO1861]?
A: IC50 (A431 cells [2]): 2 µM; IC50 (HeLa cells [3]): 9 µM; cell-killing activity compared with the SO1861 derivatives (A431 cells [4]; [7]): strongest cell-killing activity; IC50 (A431 cells [4]; [8]): 300 nM; cell-killing activity compared with the SO1861 derivatives (HeLa cells [5]; [7]): strongest cell-killing activity; IC50 (HeLa cells [5]; [8]): 500 nM; IC50 [1]: 10 µM

Q: What does the source list for CC(=O)OC1C(C)OC(OC2C(C)OC(OC(=O)[C@]34CCC(C)(C)CC3C3=CCC5[C@@]6(C)CC[C@H](OC7OC(C(=O)O)C(O)C(OC8OCC(O)C(O)C8O)C7OC7OC(CO)C(O)C(O)C7O)[C@@](C)(C=NNC(=O)N7CCN(C(=O)CCCCCN8C(=O)C=CC8=O)CC7)C6CC[C@@]5(C)[C@]3(C)C[C@H]4O)C(OC3OC(C)C(OC4OCC(O)C(OC5OC(CO)C(O)C(O)C5O)C4O)C(O)C3O)C2O)C(O)C1OC1OCC(O)C(O)C1O (stereo partly drawn) [SO1861-SC-Mal]?
A: IC50 (HeLa cells [3]; Homo sapiens): > 100 µM; IC50 ([1]; Erythrocyte): 250 µM; IC50 [6]: 0.6 µM
